What follows are molecules tested against Stromal cell-derived factor 1 (Homo sapiens, UniProt P48061) (assay: Binding affinity to wild type CXCL12 (unknown origin) by NMR spectroscopy). Details: not given; call rule not given here.
Chain of Stromal cell-derived factor 1 (P48061 whole entry): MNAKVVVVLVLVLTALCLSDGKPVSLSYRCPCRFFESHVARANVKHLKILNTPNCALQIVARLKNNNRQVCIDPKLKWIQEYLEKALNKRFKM

Row | SMILES | Kd
1 | O=C(O)c1ccc(Nc2nc(Nc3ccc(C(=O)O)cc3)nc(-c3ccccc3)n2)cc1 | Nd(Insoluble)
2 | O=C(O)CSc1nc(SCC(=O)O)nc(C2C3CC4CC(C3)CC2C4)n1 (stereo unspecified) | Not Active
3 | O=C(O)CSc1nc(SCC(=O)O)nc(C2=CCCCC2)n1 | Nd(Insoluble)
4 | O=C(O)CSc1nc(SCC(=O)O)nc(-c2ccc(-c3ccccc3)cc2)n1 | Nd(Insoluble)
5 | O=C(O)CSc1nc(SCC(=O)O)nc(-c2ccoc2)n1 | Nd(Insoluble)
6 | O=C(O)CSc1nc(SCC(=O)O)nc(-c2cnc3ccccc3c2)n1 | Nd(Insoluble)
7 | O=C(O)CSc1nc(SCC(=O)O)nc(-c2c3ccccc3cc3ccccc23)n1 | Not Active
8 | O=C(O)CSc1nc(SCC(=O)O)nc(-c2ccc(Oc3ccccc3)cc2)n1 | Nd(Insoluble)

Same assay, conditions: read-out: Kd

Row | SMILES | Kd
9 | O=C(O)CSc1nc(SCC(=O)O)nc(N2CCOCC2)n1 | 234 µM
10 | O=C(O)CSc1nc(SCC(=O)O)nc(-c2ccc(N3CCOCC3)cc2)n1 | 306 µM
11 | C[N+]1(c2nc(SCC(=O)O)nc(SCC(=O)O)n2)CCOCC1 | 3020 µM

Reference: ChEMBL document CHEMBL4823329, “Trisubstituted 1,3,5-Triazines: The First Ligands of the sY12-Binding Pocket on Chemokine CXCL12” (ACS Med Chem Lett, 2021)
